Measured values taken from article PMC5643462, “Encrypted Antimicrobial Peptides from Plant Proteins” (Scientific Reports, 2017).
Values after ≈ are worked out from the molar mass of the structure shown.

Tests used:
Trichoderma asperellum = test: microbe, parasite or virus in culture; details: Trichoderma asperellum, 48 h, pH 7, read-out: Minimum inhibitory concentration, Trichoderma asperellum
Protocol: (§1) The susceptibility test of microorganisms was performed to evaluate the inhibitory activity of the IAPs. Protocols M7-A10[50], M27-A3[51] and M38-A2[52] from Clinical & Laboratory Standards Institute (CLSI) were used for bacteria, yeasts and filamentous fungi tests, respectively. Briefly, different concentration of IAPs (256-0.5 µM) were tested against 16 microorganisms, in a final volume of 100 µL. Media conditions, final cell concentration and incubation conditions are presented in Supplementary Material 07, Table S5. Three biological repetitions, with 2 technical replicates each, were performed for each test, on polystyrene flat-bottom 96 wells microplates. The minimum inhibitory concentration (MIC) was defined as the concentration that no cells/hyphae were detected when visualized by optical microscopy.
(§2) Supplementary Material 07, Table S5
(§3) Table S5. Microorganisms and growth conditions.

Candida albicans = test: microbe, parasite or virus in culture; details: Candida albicans, ATCC90028, 48 h, pH 7, read-out: Minimum inhibitory concentration, Candida albicans
Protocol: as §1, §2, §3

Fusarium oxysporum = test: microbe, parasite or virus in culture; details: Fusarium oxysporum, 48 h, pH 7, read-out: Minimum inhibitory concentration, Fusarium oxysporum
Protocol: as §1, §2, §3

Ramularia areola = test: microbe, parasite or virus in culture; details: Ramulariopsis gossypii, 120 h, pH 7, read-out: Minimum inhibitory concentration, Ramularia areola
Protocol: as §1, §2, §3

Cryptococcus neoformans = test: microbe, parasite or virus in culture; details: Cryptococcus neoformans, ATCC28957, 72 h, pH 7, read-out: Minimum inhibitory concentration, Cryptococcus neoformans
Protocol: as §1, §2, §3

Bacillus subtilis [1] = test: Microbicidal activity (minimal killing concentration), plating on agar; format: cell-based, Bacillus subtilis ATCC 23857; details: 10 µL of MIC and raising concentrations up to 256 µM plated on Mueller-Hinton agar; 37 °C, 24 h; no growth; mean ± SD, 3 biological replicates
Protocol: (§4) The microbicidal activity of the IAPS was also evaluated. […] YPD agar and Mueller-Hinton agar were used for fungi/yeasts and bacteria, respectively. Meanwhile, susceptibility microplates were incubated again to evaluate if there would be any growing after a longer period. For both approaches, the minimal killing concentration (MKC) was defined as the concentration that no growth was observed after incubation. Three biological replicates were performed for each test.
as §2, §3
(§5) Microorganisms Incubation Incubation Starting cell Growth Medium

Escherichia coli [2] = test: microbe, parasite or virus in culture; details: ATCC 25922; Mueller-Hinton; 37 °C, 24 h; start 5.0 x 10^5 cells; 256-0.5 µM; mean ± SD of 3 biological repetitions (SD 0 not displayed); N/A = no antimicrobial activity observed
Protocol: as §1, §2, §3

Erwinia carotovora [3] = test: microbe, parasite or virus in culture; details: Mueller-Hinton; 28 °C, 24 h; start 5.0 x 10^5 cells; 256-0.5 µM; mean ± SD of 3 biological repetitions (SD 0 not displayed); N/A = no antimicrobial activity observed
Protocol: as §1, §2, §3

Staphylococcus aureus [4] = test: microbe, parasite or virus in culture; details: ATCC 25923; Mueller-Hinton; 37 °C, 24 h; start 5.0 x 10^5 cells; 256-0.5 µM; mean ± SD of 3 biological repetitions (SD 0 not displayed); N/A = no antimicrobial activity observed
Protocol: as §1, §2, §3

[5] = tested on: Pseudomonas syringae pv. tabaci; test: microbe, parasite or virus in culture; details: Mueller-Hinton; 28 °C, 24 h; start 5.0 x 10^5 cells; 256-0.5 µM; mean ± SD of 3 biological repetitions (SD 0 not displayed); N/A = no antimicrobial activity observed
Protocol: as §1, §2, §3

Bacillus subtilis [6] = test: microbe, parasite or virus in culture; details: ATCC 23857; Mueller-Hinton; 37 °C, 24 h; start 5.0 x 10^5 cells; 256-0.5 µM; mean ± SD of 3 biological repetitions (SD 0 not displayed); N/A = no antimicrobial activity observed
Protocol: as §1, §2, §3

Xanthomonas campestris [7] = test: microbe, parasite or virus in culture; details: pv. citri; Mueller-Hinton; 28 °C, 24 h; start 5.0 x 10^5 cells; 256-0.5 µM; mean ± SD of 3 biological repetitions (SD 0 not displayed); N/A = no antimicrobial activity observed
Protocol: as §1, §2, §3

Erwinia carotovora [8] = test: Microbicidal activity (minimal killing concentration), plating on agar; format: cell-based; details: 10 µL of MIC and raising concentrations up to 256 µM plated on Mueller-Hinton agar; 28 °C, 24 h; no growth; mean ± SD, 3 biological replicates
Protocol: as §4, §2, §3, §5
(§6) Temperature (°C) Time (h) concentration
(§7) Erwinia carotovora 28 24 5.0 x 10 5 Mueller -Hinton
(§8) Xanthomonas campestris pv. citri 28 24 5.0 x 10 5 Mueller -Hinton
(§9) Pseudomonas syringae pv. tabaci 28 24 5.0 x 10 5 Mueller -Hinton

[9] = tested on: Pseudomonas syringae pv. tabaci; test: as above; format: cell-based; details: 10 µL of MIC and raising concentrations up to 256 µM plated on Mueller-Hinton agar; 28 °C, 24 h; no growth; mean ± SD, 3 biological replicates
Protocol: as §4, §2, §3, §5, §6, §7, §8, §9

Escherichia coli [10] = test: as above; format: cell-based, Escherichia coli ATCC 25922; details: 10 µL of MIC and raising concentrations up to 256 µM plated on Mueller-Hinton agar; 37 °C, 24 h; no growth; mean ± SD, 3 biological replicates
Protocol: as §4, §2, §3, §5

Staphylococcus aureus [11] = test: as above; format: cell-based, Staphylococcus aureus ATCC 25923; details: 10 µL of MIC and raising concentrations up to 256 µM plated on Mueller-Hinton agar; 37 °C, 24 h; no growth; mean ± SD, 3 biological replicates
Protocol: as §4, §2, §3, §5, §6, §7, §8, §9

Xanthomonas campestris [12] = test: as above; format: cell-based, Xanthomonas campestris pv. citri; details: 10 µL of MIC and raising concentrations up to 256 µM plated on Mueller-Hinton agar; 28 °C, 24 h; no growth; mean ± SD, 3 biological replicates
Protocol: as §4, §2, §3, §5, §6, §7, §8, §9

Row | SMILES | MIC (Trichoderma asperellum) [µM] | MIC (Candida albicans) [µM] | MIC (Fusarium oxysporum) [µM] | MIC (Ramularia areola) [µM] | MIC (Cryptococcus neoformans) [µM] | Minimum microbicidal concentration, Bacillus subtilis (Bacillus subtilis [1]) [µM] | Minimum inhibitory concentration, Escherichia coli (Escherichia coli [2]) [µM] | Minimum inhibitory concentration, Erwinia carotovora (Erwinia carotovora [3]) [µM] | Minimum inhibitory concentration, Staphylococcus aureus (Staphylococcus aureus [4]) [µM] | Minimum inhibitory concentration, Pseudomonas syringae pv. tabaci [5] [µM] | Minimum inhibitory concentration, Bacillus subtilis (Bacillus subtilis [6]) [µM] | Minimum inhibitory concentration, Xanthomonas campestris (Xanthomonas campestris [7]) [µM] | Minimum microbicidal concentration, Erwinia carotovora (Erwinia carotovora [8]) [µM] | Minimum microbicidal concentration, Pseudomonas syringae pv. tabaci [9] [µM] | Minimum microbicidal concentration, Escherichia coli (Escherichia coli [10]) [µM] | Minimum microbicidal concentration, Staphylococcus aureus (Staphylococcus aureus [11]) [µM] | Minimum microbicidal concentration, Xanthomonas campestris (Xanthomonas campestris [12]) [µM]
1 | C[C@@H]1[C@H](O)[C@@H](C)/C=C/C=C/C=C/C=C/C=C/C=C/C=C/[C@H](O[C@@H]2O[C@H](C)[C@@H](O)[C@H](N)[C@@H]2O)C[C@@H]2O[C@](O)(C[C@@H](O)C[C@@H](O)[C@H](O)CC[C@@H](O)C[C@@H](O)CC(=O)O[C@H]1C)C[C@H](O)[C@H]2C(=O)O [Amphotericin B] | 2.16 (≈ 2 µg/mL) | 0.27 (≈ 0.25 µg/mL) | 0.54 (≈ 0.499 µg/mL) | 0.54 (≈ 0.499 µg/mL) | 0.13 (≈ 0.12 µg/mL) | – | – | – | – | – | – | – | – | – | – | – | –
2 | CC1(C)S[C@@H]2[C@H](NC(=O)[C@H](N)c3ccccc3)C(=O)N2[C@H]1C(=O)O [Ampicilin] | – | – | – | – | – | 0.08 ± 0.0 | 10.77 (≈ 3.76 µg/mL) | 1.35 (≈ 0.472 µg/mL) | 5.38 (≈ 1.88 µg/mL) | 2.69 (≈ 0.94 µg/mL) | 0.08 (≈ 0.028 µg/mL) | 1.35 (≈ 0.472 µg/mL) | 2.70 ± 0.0 | 10.77 ± 0.0 | 10.77 ± 0.0 | 10.77 ± 0.0 | 5.38 ± 0.0
